Data from US20180028425A1, “COSMETIC COMPOSITIONS OF UV FILTERS” (3V Sigma S.P.A., priority 2016, published 2018).

Assay: UV-A/UV-B ratio of the UV filter compounds
Type: physicochemical
From the text: Typically, the numerical UV-A/UV-B ratio of these compounds, defined as the ratio of the intensity of the radiation absorbed between 320 nm and 400 nm (UVA fraction) to that absorbed between 290 nm and 320 nm (UVB fraction), is greater than 0.20, preferably greater than 0.30, whereas in the analogous triazine compounds with a 4-aminobenzoate or 4-aminobenzamide substituent different from the substituents described in Formula (IV), it is below about 0.14.
The UVA:UVB ratio is the ratio between the intensity of the radiation absorbed between 320 nm and 400 nm (UVA fraction) and that absorbed between 290 nm and 320 nm (UVB fraction).

| SMILES | UVA fraction compared with known triazine analogues (diethylhexyl butamido triazone, ethylhexyl triazone) |
| --- | --- |
| CCCCC(CC)COC(=O)c1ccc(NC(=O)c2ccc(Nc3nc(Nc4ccc(C(=O)Nc5ccc(C(=O)OCC(CC)CCCC)cc5)cc4)nc(Nc4ccc(C(=O)NC(C)(C)C)cc4)n3)cc2)cc1 (stereo not drawn) [Compound (V)] | at least twice as high |
| CCCCC(CC)COC(=O)c1ccc(NC(=O)c2ccc(Nc3nc(Nc4ccc(C(=O)OCC(CC)CCCC)cc4)nc(Nc4ccc(C(=O)OCC(CC)CCCC)cc4)n3)cc2)cc1 (stereo not drawn) [Compound (VII)] | at least twice as high |
| CCCCC(CC)COC(=O)c1ccc(NC(=O)c2ccc(Nc3nc(Nc4ccc(C(=O)NC(C)(C)C)cc4)nc(Nc4ccc(C(=O)OCC(CC)CCCC)cc4)n3)cc2)cc1 (stereo not drawn) [Compound (VI)] | at least twice as high |
